Read-outs that look alike come from different tables or passages of the source.
Assays:
human P-gp [1] = target: T1, human P-gp (Homo sapiens, UniProt P08183); assay: Transcellular transport of PSC833 in LLC-PK1 and LLC-GA5-COL150 cells
human P-gp [2] = target: T1, human P-gp
[3] = clinical trials, cited from earlier work
human P-gp [4] = target: T1, human P-gp; conditions: for effect on [14C]doxorubicin transport: LLC-GA5-COL150
human P-gp [5] = target: T1, human P-gp; conditions: 2 μM inhibitor, LLC-GA5-COL150, after last sampling (3 h)
P-gp = conditions: cited from earlier work

T1 sequence (P08183 whole entry): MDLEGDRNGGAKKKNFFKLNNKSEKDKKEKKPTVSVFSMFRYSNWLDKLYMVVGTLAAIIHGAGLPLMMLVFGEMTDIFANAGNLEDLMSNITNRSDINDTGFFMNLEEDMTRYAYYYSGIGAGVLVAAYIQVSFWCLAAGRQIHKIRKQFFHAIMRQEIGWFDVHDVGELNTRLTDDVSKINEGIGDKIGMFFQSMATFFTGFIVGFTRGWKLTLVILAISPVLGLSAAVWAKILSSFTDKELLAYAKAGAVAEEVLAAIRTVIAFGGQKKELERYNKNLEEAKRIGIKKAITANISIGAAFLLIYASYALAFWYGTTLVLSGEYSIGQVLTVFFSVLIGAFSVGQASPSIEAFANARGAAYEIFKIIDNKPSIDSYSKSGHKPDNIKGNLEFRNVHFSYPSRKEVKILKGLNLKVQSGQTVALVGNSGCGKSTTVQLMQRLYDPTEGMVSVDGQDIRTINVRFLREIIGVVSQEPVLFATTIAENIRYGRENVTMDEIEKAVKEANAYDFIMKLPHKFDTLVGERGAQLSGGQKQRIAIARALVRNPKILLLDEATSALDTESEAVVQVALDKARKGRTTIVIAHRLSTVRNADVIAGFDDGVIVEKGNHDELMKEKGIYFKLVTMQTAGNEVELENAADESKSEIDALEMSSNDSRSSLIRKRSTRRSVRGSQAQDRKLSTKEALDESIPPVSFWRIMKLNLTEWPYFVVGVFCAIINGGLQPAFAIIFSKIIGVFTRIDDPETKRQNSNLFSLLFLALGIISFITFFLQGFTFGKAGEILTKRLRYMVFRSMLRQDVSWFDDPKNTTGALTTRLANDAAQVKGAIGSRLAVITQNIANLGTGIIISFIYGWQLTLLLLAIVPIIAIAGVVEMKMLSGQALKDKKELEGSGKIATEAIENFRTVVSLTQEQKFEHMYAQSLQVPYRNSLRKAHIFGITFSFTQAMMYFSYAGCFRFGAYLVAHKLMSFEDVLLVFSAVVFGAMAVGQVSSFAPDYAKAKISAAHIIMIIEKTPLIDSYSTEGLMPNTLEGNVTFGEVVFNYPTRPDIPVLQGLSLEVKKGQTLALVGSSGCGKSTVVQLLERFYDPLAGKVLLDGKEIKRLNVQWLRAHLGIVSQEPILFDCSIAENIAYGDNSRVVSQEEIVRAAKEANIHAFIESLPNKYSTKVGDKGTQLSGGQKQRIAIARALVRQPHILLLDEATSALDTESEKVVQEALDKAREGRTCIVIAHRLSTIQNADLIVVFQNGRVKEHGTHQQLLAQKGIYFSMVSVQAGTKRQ

C/C=C/C[C@@H](C)C(=O)[C@H]1C(=O)N[C@@H](C(C)C)C(=O)N(C)CC(=O)N(C)[C@@H](CC(C)C)C(=O)N[C@@H](C(C)C)C(=O)N(C)[C@@H](CC(C)C)C(=O)N[C@@H](C)C(=O)N[C@H](C)C(=O)N(C)[C@@H](CC(C)C)C(=O)N(C)[C@@H](CC(C)C)C(=O)N(C)[C@@H](C(C)C)C(=O)N1C [PSC833, [3′‐keto‐Bmt1]‐Val2]‐cyclosporin]
transported amount in LLC-GA5-COL150 cells compared with LLC-PK1 cells (human P-gp [1]; 10 μM PSC833, 3 and 6 h, 37C, HPLC-UV): approximately the same
transport by P-gp (human P-gp [1]; LLC-GA5-COL150 vs LLC-PK1 monolayers, 10 μM, both directions): not transported
effect on [3H]vinblastine transport (human P-gp [2]; 2 μM inhibitor, LLC-GA5-COL150): almost completely inhibited
IC50 of PSC833 for vinblastine transport as % of that of Cs-A (human P-gp [2]; Table I): 20%
IC50 of PSC833 less than that of Cs-A for [3H]vinblastine transport (human P-gp [2]; ratio of IC50 values, Table I): about 5 fold
concentrations at which the AUC of coadministered anticancer drugs increased [3]: 1000 to 2000 ng/mL
increase in the AUC of doxorubicin ([3]; combination therapy with PSC833 and doxorubicin): 20-199%
effect on [14C]doxorubicin transport (human P-gp [4]; 0.1 μM inhibitor): little inhibitory effect
IC50 of PSC833 for [14C]doxorubicin transport as % of that of Cs-A (human P-gp [4]; Table I): 10%
effect on [14C]doxorubicin transport (human P-gp [4]; inhibitor concentrations greater than 0.5 μM): strong inhibitory effect
IC50 of PSC833 less than that of Cs-A for [14C]doxorubicin transport (human P-gp [4]; ratio of IC50 values, Table I): ~10 fold
intracellular accumulation of [3H]vinblastine (human P-gp [5]): approached the control level
more effective than Cs-A in displacing the photoactivatable cyclosporin analogue (P-gp): approximately 2.5 fold
